# Legend:
# Type in all cases: in vivo
# [1] = test system: Frankliniella occidentalis; experiment: Two-plant choice test of thrips repellency after spraying (Examples 1 and 2); conditions: for repellency against thrips (number of thrips on plant vs water control): 100 μM solution sprayed; for repellency against thrips (number of thrips on plant vs water control) / repellency against Frankliniella occidentalis: thrips released two days after, counted 24 h later; for repellency against Frankliniella occidentalis: 100 μM PDJ sprayed
# Protocol: Then, 100 μM PDJ solution was directly sprayed on one of the two plant individuals by use of a spraying device. On the other one of the two plant individuals, only water was sprayed similarly. This plant individual on which only water was sprayed was a control. Two days after the above treatment, 30 female adult thrips of Frankliniella occidentalis were released at a middle point between the two plant individuals. Twenty-four hours after that release of Frankliniella occidentalis, the number of thrips on each plant individual was counted so that which one of the plant individuals the thrips had moved to was found. With use of 100 μM JA solution, a similar experiment was carried out. Further, similar experiments with use of the 100 μM PDJ solution and the 100 μM JA solution were carried out on tomato (Solanum lycopersicum) three weeks after seeding.
# (§1) Then, 100 μM PDJ solution was sprayed on an entire aerial part of only one of the two plant individuals by use of a spraying device. On the other one of the two plant individuals, only water was sprayed by a similar method. This plant individual on which only water was sprayed was a control. Two days after the above spraying, 30 female adult thrips of Frankliniella occidentalis were released at a middle point between the two plant individuals. Twenty-four hours after that release of Frankliniella occidentalis, the number of thrips on each plant individual was counted so that which one of the plant individuals the thrips had moved to was found.
# Further, the target plant was changed to crown daisy (Glebionis coronaria) of the family Asteraceae, and repellency against thrips was studied similarly.
# [2] = test system: Frankliniella occidentalis; experiment: Repeated spraying on tomato, thrips count on third and higher-order true leaves (Example 5); conditions: counted forty days after release
# Protocol: Then, 100 μM PDJ solution was directly prayed on an entire aerial part of only one of the two plant individuals by use of a spraying device. The above spraying was carried out 3 times, 4 times or 5 times at intervals of 5 to 7 days. On the other one of the two plant individuals, only water was sprayed by a similar method. This plant individual on which only water was sprayed was a control. Four days after the last spraying, 30 female adult thrips of Frankliniella occidentalis were released at a middle point between the two plant individuals. Forty days after that release of Frankliniella occidentalis, the number of thrips on the third and higher-order true leaves was counted. […] In the case of the plant individual on which the PDJ solution was sprayed 3 times, the total number of thrips attached to the third and higher-order true leaves was approximately 20% relative to that of the control. In the case of the plant individual on which the PDJ solution was sprayed 4 times or 5 times, the total number of thrips attached to the third and higher-order true leaves was 0% relative to that of the control. In this way, it was clarified that in a case where spraying is carried out 4 times or 5 times at intervals of 5 days to 7 days, repellency against thrips is higher than that in a case where spraying is carried out 3 times.
# Thrips tabaci Lindeman = experiment: Two-plant choice test of thrips repellency after spraying (Example 3); conditions: 100 μM PDJ sprayed, thrips released two days after, counted 24 h later
# Protocol: Then, 100 μM PDJ was sprayed on an entire aerial part of only one of the two plant individuals by use of a spraying device. On the other one of the two plant individuals, only water was sprayed by a similar method. This plant individual on which only water was sprayed was a control. Two days after the above spraying, 30 female adult thrips of Thrips tabaci Lindeman were released at a middle point between the two plant individuals. Twenty-four hours later, the number of Thrips tabaci Lindeman on each plant individual was counted so that which one of the plant individuals the thrips had moved to was found. As a result, with regard to the green pepper (bell pepper) (Capsicum annuum L. ‘grossum’), an attachment rate of Thrips tabaci Lindeman was approximately 40% relative to that of the control. Meanwhile, with regard to cabbage (Brassica oleracea var. capitata), an attachment rate of Thrips tabaci Lindeman was approximately 40% relative to that of the control.
# [3] = test system: Frankliniella occidentalis; experiment: Spraying time relative to development of fourth true leaf of tomato, thrips count (Examples 6 and 7); conditions: counted six days after release
# Protocol: Then, 100 μM PDJ solution was sprayed on an entire aerial part of only one of the two plant individuals by use of a spraying device. On the other one of the two plant individuals, only water was sprayed by a similar method. This plant individual on which only water was sprayed was a control. The above spraying was carried out at time points 3 days, 7 days, 10 days and 15 days after the start of development of the fourth true leaf. Four days after the above spraying, 30 female adult thrips of Frankliniella occidentalis were released at a middle point between the two plant individuals. Six days after that release of Frankliniella occidentalis, the number of thrips on the fourth true leaf was counted. […] The number of thrips attached to the fourth true leaf was approximately 5% of that of the control in the case of the spraying carried out at the time point 3 days after the start of the development of the fourth true leaf, approximately 10% of that of the control in the case of the spraying carried out at the time point 7 days after the start of the development, approximately 40% of that of the control in the case of the spraying carried out at the time point 10 days after the start of the development, and approximately 50% of that of the control in the case of the spraying carried out at the time point 15 days after the start of the development. In this way, it was clarified that in a case where the spraying was carried out within 7 days from the start of development of a new leaf of a plant, repellency against thrips given to the plant is higher than that in a case where spraying is carried out more than 7 days after the start of the development. In a greenhouse whose room temperature was kept in a range of 20° C. to 25° C., two plant individuals of tomato (Solanum lycopersicum) (approximately 1 to 1.5 months after seeding), which had developed 3 true leaves, were placed apart from each other such that a distance of […] was provided and kept between these plant individuals. Then, 100 μM PDJ solution was sprayed on an entire aerial part of only one of the two plant individuals by use of a spraying device. At this time point, the fourth true leaf was not yet developed. On the other one of the two plant individuals, only water was sprayed by a similar method. This plant individual on which only water was sprayed was a control. Four days after the above spraying, 30 female adult thrips of Frankliniella occidentalis were released at a middle point between the two plant individuals. Six days after that release of Frankliniella occidentalis, the number of thrips on the fourth true leaf was counted. […] The number of thrips attached to the fourth true leaf was approximately 100% of that of the control.
# Frankliniella intonsa = experiment: Two-plant choice test of thrips repellency after spraying (Example 4); conditions: 100 μM PDJ sprayed, thrips released two days after, counted 24 h later
# Protocol: as §1, with “intonsa” for “occidentalis”, “intonsa,” for “occidentalis,”
# [4] = 100 μM PDJ sprayed when fourth true leaf was not yet developed (Example 7)
compound,measurement,setting,value
"CC/C=C\CC1C(=O)CCC1CC(=O)OC (stereo not shown) [JA, methyl jasmonate, reference compound]",repellency against thrips (number of thrips on plant vs water control),[1]; Arabidopsis thaliana,can give repellency against thrips
same,repellency against thrips (number of thrips on plant vs water control),[1]; tomato (Example 1),can give repellency against thrips
prohydrojasmon [PDJ],total number of thrips attached to the third and higher-order true leaves relative to that of the control,[2]; 100 μM PDJ sprayed 3 times at intervals of 5 to 7 days,approximately 20%
same,total number of thrips attached to the third and higher-order true leaves relative to that of the control,[2]; 100 μM PDJ sprayed 4 times at intervals of 5 to 7 days,0%
same,total number of thrips attached to the third and higher-order true leaves relative to that of the control,[2]; 100 μM PDJ sprayed 5 times at intervals of 5 to 7 days,0%
same,attachment rate of Thrips tabaci Lindeman relative to that of the control,Thrips tabaci Lindeman; cabbage,approximately 40%
same,attachment rate of Thrips tabaci Lindeman relative to that of the control,Thrips tabaci Lindeman; green pepper,approximately 40%
same,"number of thrips attached to the fourth true leaf, of that of the control",[3]; 100 μM PDJ sprayed 3 days after start of development of fourth true leaf,approximately 5%
same,"number of thrips attached to the fourth true leaf, of that of the control",[3]; 100 μM PDJ sprayed 7 days after start of development of fourth true leaf,approximately 10%
same,"number of thrips attached to the fourth true leaf, of that of the control",[3]; 100 μM PDJ sprayed 10 days after start of development of fourth true leaf,approximately 40%
same,"number of thrips attached to the fourth true leaf, of that of the control",[3]; 100 μM PDJ sprayed 15 days after start of development of fourth true leaf,approximately 50%
same,"number of thrips attached to the fourth true leaf, of that of the control",[3]; [4],approximately 100%
same,total number of thrips attached to the first to third true leaves vs control,[3]; [4],much smaller than that of the control
same,repellency against thrips (number of thrips on plant vs water control),[1]; Arabidopsis thaliana,can give repellency against thrips
same,repellency against Frankliniella occidentalis,[1]; cabbage,sufficient repellency
same,repellency against Frankliniella occidentalis,[1]; chrysanthemum,sufficient repellency
same,repellency against thrips,"[1]; crown daisy (Glebionis coronaria), studied similarly to Example 2",repellency against thrips is given
same,repellency against Frankliniella occidentalis,[1]; cucumber,sufficient repellency
same,repellency against Frankliniella occidentalis,[1]; green pepper,sufficient repellency
same,repellency against Frankliniella occidentalis,[1]; strawberry,sufficient repellency
same,repellency against thrips (number of thrips on plant vs water control),[1]; tomato (Example 1),can give repellency against thrips
same,repellency against Frankliniella occidentalis,[1]; tomato (Example 2),sufficient repellency
same,repellency against Frankliniella intonsa,Frankliniella intonsa; cabbage,sufficient repellency
same,repellency against Frankliniella intonsa,Frankliniella intonsa; chrysanthemum,sufficient repellency
same,repellency against Frankliniella intonsa,Frankliniella intonsa; cucumber,sufficient repellency
same,repellency against Frankliniella intonsa,Frankliniella intonsa; green pepper,sufficient repellency
same,repellency against Frankliniella intonsa,Frankliniella intonsa; strawberry,sufficient repellency
same,repellency against Frankliniella intonsa,Frankliniella intonsa; tomato,sufficient repellency

# Source: US20190069548A1, “AGENT FOR CONTROLLING THRIPS AND USE THEREOF” (RIKEN, priority 2016, published 2019)
